Measured values reported in US11771651B2, “Liposomes and uses thereof” (Academia Sinica, priority 2018, dated 2023).
Several values for one entry are separate records, joined by “and”; a condition that tells them apart may be missing. Equal values may be shown once.

Experiments:
Format in all cases: cell-based, human
[1] = tested on: KB cells; experiment: MTT assay, photo-responsive liposomes; conditions: DOX apparent concentration, 40 hours incubation
Description: Then, the medium was replaced by the MEM medium (without FBS) containing free DOX, or the MEM medium (without FBS) containing DDL or MDL, in the presence or absence of light irradiation (5 mW/cm^2, 4 minutes), and then incubated at 37° C. for additional 20 hours. The medium was further replaced to MEM with 10% FBS for another 20 hours incubation at 37° C. 20 μl of MTT stock solution (5 mg/ml in PBS) was added to each well incubated at 37° C. for 2 hours, then removed 170 μl of culture medium followed by the addition of 200 μl of DMSO to each well to dissolve the purple formazan product at 37° C. on a 120 rpm reciprocal shaker for 10 minutes. The absorbance of the formazan product in DMSO solution at 540 nm was measured by plate reader so as to estimate cellular viability.

[2] = tested on: KB cells; experiment: MTT assay, phosphatase-responsive liposomes; conditions: free DOX, ALP status not stated
Description: In the study of the phosphatase-responsive liposomes, KB cells (2×10^4 cells per well) were seeded on a 96 well plate in DMEM with 10% FBS at 37° C. for 20 hours. Then, the medium was replaced by the MEM medium (without FBS) containing DOX liposome, 3-MDL, 4-MDL, 5-MDL, 6-MDL, 7-MDL or free DOX, with or without ALP (50 U/ml), and then incubated at 37° C. for 20 hours. The medium was further replaced to MEM with 10% FBS for another 20 hour incubation at 37° C. 20 μl of MTT stock solution (5 mg/ml in PBS) was added to each well incubated at 37° C. for 2 hours, then removed 170 μl of culture medium followed by the addition of 200 μl of DMSO to each well to dissolve the purple formazan product at 37° C. on a 120 rpm reciprocal shaker for 10 minutes. The absorbance of the formazan product in DMSO solution at 540 nm was measured by plate reader to estimate cellular viability.

[3] = tested on: KB cells; experiment: Endogenous ALP-induced liposomal DOX release by flow cytometer; conditions: 25 μM, 20 hours, data not shown
Description: The cell solution (100 μl) were diluted to 1 ml PBS for flow cytometry analysis.

## COc1cccc2c1C(=O)c1c(O)c3c(c(O)c1C2=O)C[C@@](O)(C(=O)CO)C[C@@H]3O[C@H]1C[C@H](N)[C@H](O)[C@H](C)O1 [DOX, doxorubicin]
[1]; UV (irradiated 4 minutes)
  IC50: 3000 nM and ~3000 nM
[1]; dark (non-irradiated)
  IC50: 700 nM and ~700 nM
[2]
  IC50: 3000 nM
[3]
  DOX uptake (cellular DOX fluorescence): 100%
